Data from the NIST ThermoML archive (doi:10.1016/j.jct.2011.10.027).

Experiment: xn = mol fraction of the nth substance listed
Conditions: 101 kPa, Liquid, Vibrating tube method

CCCCN(CCCC)CCCC [tributylamine] + CCc1ccccc1
mass density [kg/m3]
Conditions | 293.15 K | 298.15 K | 303.15 K | 313.15 K | 323.15 K | 333.15 K
x1 = 0.0829 | 852.96 | 848.66 | 844.35 | 835.7 | 827 | 818.22
x1 = 0.1602 | 841.78 | 837.56 | 833.34 | 824.84 | 816.3 | 807.68
x1 = 0.2404 | 831.68 | 827.53 | 823.38 | 815.04 | 806.64 | 798.19
x1 = 0.3189 | 823 | 818.92 | 814.83 | 806.62 | 798.36 | 790.04
x1 = 0.3972 | 815.35 | 811.33 | 807.3 | 799.2 | 791.06 | 782.85
x1 = 0.4788 | 808.26 | 804.3 | 800.32 | 792.33 | 784.3 | 776.21
x1 = 0.572 | 801.08 | 797.17 | 793.25 | 785.37 | 777.45 | 769.48
x1 = 0.6382 | 796.47 | 792.6 | 788.71 | 780.91 | 773.07 | 765.18
x1 = 0.7192 | 791.35 | 787.52 | 783.67 | 775.96 | 768.2 | 760.39
x1 = 0.8022 | 786.64 | 782.83 | 779.02 | 771.38 | 763.69 | 755.96
x1 = 0.8765 | 782.75 | 778.98 | 775.21 | 767.62 | 760 | 752.32
x1 = 0.9556 | 778.92 | 775.18 | 771.44 | 763.92 | 756.36 | 748.76

CCCCN(CCCC)CCCC [tributylamine] + Cc1ccc(C)cc1
mass density [kg/m3]
Conditions | 293.15 K | 298.15 K | 303.15 K | 313.15 K | 323.15 K | 333.15 K
x1 = 0.0834 | 848.23 | 843.97 | 839.71 | 831.14 | 822.53 | 813.86
x1 = 0.1617 | 837.85 | 833.67 | 829.48 | 821.06 | 812.59 | 804.05
x1 = 0.2416 | 828.6 | 824.47 | 820.35 | 812.06 | 803.72 | 795.32
x1 = 0.3196 | 820.59 | 816.53 | 812.46 | 804.29 | 796.06 | 787.79
x1 = 0.3984 | 813.4 | 809.38 | 805.37 | 797.3 | 789.19 | 781.03
x1 = 0.482 | 806.6 | 802.64 | 798.67 | 790.72 | 782.71 | 774.64
x1 = 0.56 | 800.89 | 796.97 | 793.04 | 785.17 | 777.26 | 769.29
x1 = 0.633 | 796.02 | 792.14 | 788.26 | 780.46 | 772.62 | 764.73
x1 = 0.7229 | 790.59 | 786.75 | 782.91 | 775.2 | 767.45 | 759.65
x1 = 0.7717 | 787.86 | 784.05 | 780.24 | 772.57 | 764.86 | 757.1
x1 = 0.878 | 782.45 | 778.68 | 774.9 | 767.33 | 759.71 | 752.04
x1 = 0.9458 | 779.3 | 775.56 | 771.81 | 764.28 | 756.72 | 749.1

CCCCN(CCCC)CCCC [tributylamine] + Cc1cccc(C)c1
mass density [kg/m3]
Conditions | 293.15 K | 298.15 K | 303.15 K | 313.15 K | 323.15 K | 333.15 K
x1 = 0.0803 | 851.21 | 846.99 | 842.76 | 834.27 | 825.72 | 817.11
x1 = 0.1564 | 840.57 | 836.42 | 832.26 | 823.89 | 815.48 | 806.98
x1 = 0.2405 | 830.31 | 826.21 | 822.11 | 813.87 | 805.59 | 797.24
x1 = 0.3223 | 821.61 | 817.57 | 813.53 | 805.4 | 797.23 | 788.99
x1 = 0.3983 | 814.42 | 810.43 | 806.43 | 798.4 | 790.32 | 782.19
x1 = 0.4784 | 807.64 | 803.69 | 799.74 | 791.81 | 783.83 | 775.79
x1 = 0.5497 | 802.22 | 798.31 | 794.4 | 786.54 | 778.64 | 770.68
x1 = 0.6375 | 796.16 | 792.3 | 788.42 | 780.65 | 772.84 | 764.97
x1 = 0.7175 | 791.21 | 787.38 | 783.55 | 775.85 | 768.1 | 760.32
x1 = 0.7958 | 786.77 | 782.98 | 779.18 | 771.54 | 763.87 | 756.15
x1 = 0.8823 | 782.31 | 778.55 | 774.78 | 767.21 | 759.6 | 751.95
x1 = 0.9616 | 778.58 | 774.84 | 771.1 | 763.6 | 756.05 | 748.45

CCCCN(CCCC)CCCC [tributylamine] + Cc1ccccc1
mass density [kg/m3]
Conditions | 293.15 K | 298.15 K | 303.15 K | 313.15 K | 323.15 K | 333.15 K
x1 = 0.0818 | 851.2 | 846.71 | 842.2 | 833.14 | 824.01 | 814.79
x1 = 0.1626 | 838.57 | 834.2 | 829.81 | 821 | 812.13 | 803.18
x1 = 0.2401 | 828.4 | 824.14 | 819.86 | 811.26 | 802.6 | 793.86
x1 = 0.3243 | 819.07 | 814.89 | 810.71 | 802.29 | 793.83 | 785.3
x1 = 0.3987 | 811.93 | 807.83 | 803.72 | 795.46 | 787.15 | 778.78
x1 = 0.4789 | 805.28 | 801.25 | 797.2 | 789.08 | 780.92 | 772.69
x1 = 0.5592 | 799.41 | 795.44 | 791.46 | 783.47 | 775.43 | 767.34
x1 = 0.6414 | 794.14 | 790.22 | 786.3 | 778.42 | 770.5 | 762.52
x1 = 0.7238 | 789.42 | 785.56 | 781.69 | 773.92 | 766.11 | 758.24
x1 = 0.7985 | 785.62 | 781.8 | 777.97 | 770.28 | 762.56 | 754.78
x1 = 0.8802 | 781.79 | 778.01 | 774.23 | 766.64 | 759 | 751.31
x1 = 0.8991 | 780.96 | 777.2 | 773.42 | 765.85 | 758.23 | 750.57

CCCCN(CCCC)CCCC [tributylamine] + Cc1ccccc1C
mass density [kg/m3]
Conditions | 293.15 K | 298.15 K | 303.15 K | 313.15 K | 323.15 K | 333.15 K
x1 = 0.0762 | 865.26 | 861.1 | 856.94 | 848.59 | 840.19 | 831.72
x1 = 0.1611 | 851.26 | 847.17 | 843.07 | 834.83 | 826.55 | 818.19
x1 = 0.2324 | 840.99 | 836.94 | 832.88 | 824.73 | 816.54 | 808.28
x1 = 0.3142 | 830.6 | 826.6 | 822.59 | 814.54 | 806.44 | 798.29
x1 = 0.3986 | 821.15 | 817.19 | 813.22 | 805.26 | 797.25 | 789.19
x1 = 0.481 | 812.95 | 809.03 | 805.1 | 797.21 | 789.28 | 781.29
x1 = 0.5686 | 805.17 | 801.29 | 797.4 | 789.61 | 781.76 | 773.87
x1 = 0.6368 | 799.67 | 795.83 | 791.97 | 784.23 | 776.45 | 768.61
x1 = 0.7145 | 793.98 | 790.16 | 786.34 | 778.66 | 770.94 | 763.17
x1 = 0.769 | 790.27 | 786.47 | 782.67 | 775.03 | 767.36 | 759.64
x1 = 0.8741 | 783.74 | 779.98 | 776.21 | 768.65 | 761.06 | 753.41
x1 = 0.9545 | 779.3 | 775.56 | 771.81 | 764.3 | 756.75 | 749.14

CCCCN(CCCC)CCCC [tributylamine] + O=[N+]([O-])c1ccccc1
mass density [kg/m3]
Conditions | 293.15 K | 298.15 K | 303.15 K | 313.15 K | 323.15 K | 333.15 K
x1 = 0.0806 | 1132.44 | 1127.65 | 1122.87 | 1113.29 | 1103.7 | 1094.1
x1 = 0.1692 | 1068.2 | 1063.58 | 1058.97 | 1049.72 | 1040.46 | 1031.17
x1 = 0.2426 | 1023.24 | 1018.75 | 1014.26 | 1005.27 | 996.24 | 987.2
x1 = 0.3259 | 979.47 | 975.11 | 970.74 | 961.98 | 953.2 | 944.4
x1 = 0.3993 | 945.96 | 941.69 | 937.43 | 928.86 | 920.27 | 911.63
x1 = 0.4829 | 912.69 | 908.52 | 904.33 | 895.96 | 887.56 | 879.12
x1 = 0.5607 | 885.41 | 881.32 | 877.22 | 869.01 | 860.76 | 852.46
x1 = 0.6392 | 861.09 | 857.07 | 853.04 | 844.97 | 836.86 | 828.72
x1 = 0.7176 | 839.19 | 835.25 | 831.29 | 823.36 | 815.4 | 807.4
x1 = 0.7976 | 819.27 | 815.39 | 811.5 | 803.7 | 795.86 | 787.99
x1 = 0.8779 | 801.19 | 797.38 | 793.55 | 785.88 | 778.17 | 770.42
x1 = 0.9546 | 785.56 | 781.8 | 778.03 | 770.48 | 762.89 | 755.25
